According to the NIST ThermoML archive (doi:10.1021/acs.jced.8b00170):
± gives the expanded uncertainty stated by the source.

Tests used:
[1] = Crystal; DTA
[2] = Molar enthalpy of transition or fusion; conditions: Crystal; DSC
[3] = wn = mass fraction of the nth substance listed; conditions: 101.3 kPa, Liquid, Pycnometric method

Cc1ccc2c(c1)C(=O)OC2=O [4-methylphthalic anhydride]
Normal melting temperature [1]: 88.2 ± 2 °C
Molar enthalpy of transition or fusion [2]: 4.5 ± 0.263 kcal/mol

Cc1ccc2c(c1)C(=O)OC2=O [4-methylphthalic anhydride] + CCOC(C)=O
mass density ([3]; 288.15 K, w1 = 0.2202): 933 ± 18 kg/m3
mass density ([3]; 298.15 K, w1 = 0.2878): 948 ± 18 kg/m3
mass density ([3]; 308.15 K, w1 = 0.3605): 964 ± 19 kg/m3

O=Cc1ccc2ccccc2c1 [β-naphthaldehyde] + CCOC(C)=O
mass density ([3]; 288.15 K, w1 = 0.2851): 944 ± 18 kg/m3
mass density ([3]; 298.15 K, w1 = 0.3937): 957 ± 19 kg/m3
mass density ([3]; 308.15 K, w1 = 0.5686): 975 ± 18 kg/m3
